Measured values as given in patent US20020001582A1, “Methods and compositions for inhibiting microbial growth” (priority 1999, published 2002).

Key:
Curvularia (Poa) (IM094) = test: Minimum effective treatment concentration, fungal plug in 1/5 potato dextrose broth; type: cell-based
Protocol: (§1) Fungal cultures isolated from turfgrass were collected from different sources including B.C. Ministry of Agriculture, Fisheries and Food and ATCC.
(§2) ⅕ potato dextrose broth was prepared and autoclaved in Erlenmeyer flasks and allowed to cool. Different amounts of egg white lysozyme (Canadian Inovatech, Inc., B.C.) was weighed out and added directly into the flasks. Ten milliliters of broth was dispensed into sterile petri dishes.
(§3) A fungal square (“plug”) of each culture was cut and placed in/near the center of each plate. The petri dishes were then incubated at 22-25° C. During incubation, the petri dishes were evaluated individually by measuring the diameter of fungal growth.

[1] = test system: Fusarium (IM095, Turfgrass isolate); test: as above; type: cell-based
Protocol: as §1, §2, §3

[2] = test system: Gaeumannomyces graminis 97-923 (IM099); test: as above; type: cell-based
Protocol: as §1, §2, §3

[3] = test system: Gaeumannomyces graminis 97-923 (IM100); test: as above; type: cell-based
Protocol: as §1, §2, §3

[4] = test system: Gaeumannomyces graminis var.avenae (IM084); test: as above; type: cell-based
Protocol: as §1, §2, §3

[5] = test system: Rhizoctonia solani (IM085); test: as above; type: cell-based
Protocol: as §1, §2, §3

Rhizoctonia spp. (IM079) = test: as above; type: cell-based
Protocol: as §1, §2, §3

[6] = test system: Sclerotinia homoeocarpa (IM088); test: as above; type: cell-based
Protocol: as §1, §2, §3

[7] = test system: Typhula incarnata (IM086); test: as above; type: cell-based
Protocol: as §1, §2, §3

M. nivale = test: Suppression of fungal disease on young bentgrass, greenhouse trial; type: in vivo, M. nivale on creeping bentgrass (Agrotis spp.) cv. Penncross; conditions: 5,000 and 10,000 ppm
Protocol: Creeping bentgrass (Agrotis spp.) cv. Penncross was used as the host in the greenhouse trials. This species is widely used in golf greens and is easily managed under greenhouse conditions. Bentgrass was seeded in 6 cm diameter and 5 cm height pots (made from PVC pipes) containing steam sterilized river washed sand. A seeding rate of 0.1 g/pot was used to ensure rapid establishment of a uniform, dense stand. Throughout the experiment, the grass was regularly watered, fertilized and maintained at a cutting height approximately 2.0 cm above the soil surface.
Virulent isolates of test fungi were grown on a rye grain medium for approximately one week. This medium consisted of 50 g of rye grain, 1 g of CaCO3, and 75 ml of water. It was prepared in a 250 ml Erlenmeyer flask and autoclaved for 30 minutes. Three to five plugs of the actively growing mycelia from week old cultures on potato dextrose agar were transferred into flasks, and incubated in the dark at room temperature.
Pots of eight-week-old bentgrass were inoculated with the test fungi by placing 2-3 kernels of infected rye in the center of the grass area, just above the soil surface. After inoculation, pots were placed in humidity chambers on a greenhouse bench. Temperature during incubation was maintained at 27-30° C. for disease development and the growth of the test fungi. […]

Sclerotinia homoeocarpa = test: Protective treatment of mature bentgrass (lysozyme 24 hours before inoculation); type: in vivo
Protocol: One year old bentgrass (Agrotis spp.) cv Pennlink was used as the host in this trial. It was grown in an open field at Select Sand Farm in Fort Langley, B.C. Round pieces of turfgrass, 6 cm diameter, were cut out and placed on 5 cm high pots (made from PVC pipes) containing steam sterilized river washed sand. The potted grass was regularly watered, fertilized and maintained at a cutting height of approximately 2.0 cm above the soil surface.
The efficacy of egg white lysozyme was tested on Sclerotinia homoeocarpa. Virulent isolates of the test fungi were grown on a rye grain medium for approximately one week. This medium consisted of 50 g of rye grain, 1 g of CaCO3, and 75 ml of water. The medium was prepared in a 250 ml Erlenmeyer flask and autoclaved for 30 minutes. Three to five plugs of the actively growing mycelia from one-week-old culture on potato dextrose agar were transferred into flasks, and incubated in the dark at room temperature.
Lysozyme was applied with a hand held spray bottle. Treated and untreated bentgrass was then inoculated with the test fungi by placing 3 infected rye kernels in the center of the pot, just above the soil surface. After inoculation, the pots were placed in humidity chambers on a greenhouse bench. […]
Pots were removed from the humidity chamber and evaluated individually for disease severity. […]

[8] = test system: Pythium sylvaticom (IM195); test: Inhibition of Pythium by lysozyme in PD broth, % plate coverage; type: cell-based
Protocol: (§4) Potato dextrose broth was prepared, poured into glass dilution bottles (100 ml each), autoclaved and allowed to cool. […] A fungal square (plug) of each culture was cut and placed in/near the center of each plate. Fungal growth was quantified by measuring the diameter of growth of each fungus while it was growing on the liquid media in each petri dish using a ruler. Each treatment was done in triplicate.
(§5) The experiment was repeated three times (three batches). The observation period for each batch was 2 weeks.
(§6) The fungal growth was expressed in % coverage of the petri dishes by the fungal patches. The calculation can be presented in the following equation:
(§7) Fungal growth (%)=(area of fungal patch/total plate area)×100

[9] = test system: Pythium torrulesum (IM193); test: as above; type: cell-based; conditions: for fungal coverage of the plates: end of 2 weeks
Protocol: as §4, §5, §6, §7

[10] = test system: Phytophthora cinnamomi (IM194); test: Inhibition of Phytophthora by lysozyme in PD broth, % plate coverage; type: cell-based; conditions: for fungal growth (% plate coverage): 2 weeks after inoculation
Protocol: as §4, §5, §6, §7

**Q.** “lysozyme: type c egg white lysozyme, enzyme of approximately 129 amino acids; commercially available from Canadian Inovatech, Inc.” was tested. Which Comment (Curvularia (Poa) (IM094); 1000 ppm, 21 day) did it give?
**A.** Fair-good

**Q.** What about the “Minimum effective treatment concentration of lysozyme” value (Curvularia (Poa) (IM094); duration of trial 21 day) of the same substance?
**A.** 1000 ppm

**Q.** What about the Comment ([1]; 250 ppm, 25 day) of the same substance?
**A.** Excellent

**Q.** And the “Minimum effective treatment concentration of lysozyme” value ([1]; duration of trial 25 day)?
**A.** 250 ppm

**Q.** And the Comment ([2]; 1000 ppm, 21 day)?
**A.** Excellent

**Q.** What about the “Minimum effective treatment concentration of lysozyme” value ([2]; duration of trial 21 day) of the same substance?
**A.** 1000 ppm

**Q.** And the Comment ([3]; 1000 ppm, 21 day)?
**A.** Excellent

**Q.** What about the “Minimum effective treatment concentration of lysozyme” value ([3]; duration of trial 21 day) of the same substance?
**A.** 1000 ppm

**Q.** And the Comment ([4]; 500 ppm, 13 day)?
**A.** Excellent

**Q.** And the “Minimum effective treatment concentration of lysozyme” value ([4]; duration of trial 13 day)?
**A.** 500 ppm

**Q.** What about the Comment ([5]; 250 ppm, 13 day) of the same substance?
**A.** Fair-good

**Q.** What about the “Minimum effective treatment concentration of lysozyme” value ([5]; duration of trial 13 day) of the same substance?
**A.** 250 ppm

**Q.** What about the Comment (Rhizoctonia spp. (IM079); 150 ppm, 38 day) of the same substance?
**A.** Excellent

**Q.** And the “Minimum effective treatment concentration of lysozyme” value (Rhizoctonia spp. (IM079); duration of trial 38 day)?
**A.** 150 ppm

**Q.** And the Comment ([6]; 1000 ppm, 21 day)?
**A.** Fair-good

**Q.** What about the “Minimum effective treatment concentration of lysozyme” value ([6]; duration of trial 21 day) of the same substance?
**A.** 1000 ppm

**Q.** And the Comment ([7]; 1000 ppm, 21 day)?
**A.** Excellent

**Q.** And the “Minimum effective treatment concentration of lysozyme” value ([7]; duration of trial 21 day)?
**A.** 1000 ppm

**Q.** And the “control against M. nivale” value (M. nivale)?
**A.** good control

**Q.** What about the “differences in disease severity among the three lysozyme concentrations” value (Sclerotinia homoeocarpa; 5,000, 10,000, 20,000 ppm) of the same substance?
**A.** no significant differences

**Q.** And the “disease severity compared to the untreated control” value (Sclerotinia homoeocarpa; 5,000, 10,000 or 20,000 ppm, day 7, 10 or 21 after inoculation, p≦0.01)?
**A.** significant reductions

**Q.** What about the “fungal growth (% plate coverage)” value ([8]; 50 ppm) of the same substance?
**A.** 86%

**Q.** And the “fungal growth (% plate coverage)” value ([8]; 100 ppm)?
**A.** 51%

**Q.** What about the “fungal growth compared with 100, 50 or 0 ppm (Tukey test)” value ([8]; 250, 500 or 1000 ppm, p<0.05) of the same substance?
**A.** significantly lower

**Q.** And the “fungal growth (% plate coverage)” value ([8]; 250 ppm)?
**A.** 15%

**Q.** And the “fungal growth (% plate coverage)” value ([8]; 500 ppm)?
**A.** 7%

**Q.** What about the “fungal growth (% plate coverage)” value ([8]; 1000 ppm) of the same substance?
**A.** 6%

**Q.** And the “fungal coverage of the plates” value ([9]; 50 ppm)?
**A.** 80%

**Q.** And the “fungal coverage of the plates” value ([9]; 100 ppm)?
**A.** 80%

**Q.** And the “fungal growth compared with 100, 50 or 0 ppm (Tukey test)” value ([9]; 250, 500 or 1000 ppm, p<0.05)?
**A.** significantly lower

**Q.** And the “fungal coverage of the plates” value ([9]; 250 ppm)?
**A.** 51%

**Q.** And the “fungal coverage of the plates” value ([9]; 500 ppm)?
**A.** 25%

**Q.** And the “fungal coverage of the plates” value ([9]; 1000 ppm)?
**A.** 14%

**Q.** And the “fungal growth (% plate coverage)” value ([10]; 50 ppm)?
**A.** 50%

**Q.** And the “fungal growth (% plate coverage)” value ([10]; 100 ppm)?
**A.** 35%

**Q.** And the “fungal growth compared with 100, 50 or 0 ppm (Tukey test)” value ([10]; 250, 500 or 1000 ppm, p<0.05)?
**A.** significantly lower

**Q.** And the “fungal growth (% plate coverage)” value ([10]; 250 ppm)?
**A.** 7%

**Q.** And the “fungal growth (% plate coverage)” value ([10]; 500 ppm)?
**A.** 4%
